# Data taken from PubChem BioAssay (NCI).
#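 1) Cells in 96-well plates. 2) Compound, 48 h, 5 concentrations. 3) Linear interpolation between surrounding doses. 4) Unreached endpoint = highest concentration. TGI denotes the concentration required for complete inhibition of growth.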
# What was measured:
# Assay in all cases: NCI-60 cell line screen, 48 h
# SNB-78 CNS = system: SNB-78 CNS
# UO-31 renal = system: UO-31 renal
# SF-539 CNS = system: SF-539 CNS
# OVCAR-4 ovarian = system: OVCAR-4 ovarian
# 786-0 renal = system: 786-0 renal
# NCI-H460 lung = system: NCI-H460 lung
# LXFL 529 NSCLC = system: LXFL 529 NSCLC
# SNB-75 CNS = system: SNB-75 CNS
# DMS 114 small cell lung = system: DMS 114 small cell lung
# SW-620 colon = system: SW-620 colon
# HOP-18 NSCLC = system: HOP-18 NSCLC
# SNB-19 CNS = system: SNB-19 CNS
# DLD-1 colon = system: DLD-1 colon
# OVCAR-3 ovarian = system: OVCAR-3 ovarian
# A549 NSCLC = system: A549 NSCLC
# COLO 205 colon = system: COLO 205 colon
# CAKI-1 renal = system: CAKI-1 renal
# SK-MEL-2 melanoma = system: SK-MEL-2 melanoma
# KM20L2 colon = system: KM20L2 colon
# SF-268 CNS = system: SF-268 CNS
# UACC-62 melanoma = system: UACC-62 melanoma
# NCI-H226 lung = system: NCI-H226 lung
# HCC-2998 colon = system: HCC-2998 colon
# RPMI-8226 leukemia = system: RPMI-8226 leukemia
# RXF-631 renal = system: RXF-631 renal
# SN12C renal = system: SN12C renal
# A498 renal = system: A498 renal
# M14 melanoma = system: M14 melanoma
# HCT-15 colon = system: HCT-15 colon
# NCI-H23 lung = system: NCI-H23 lung
# M19-MEL melanoma = system: M19-MEL melanoma
# OVCAR-5 ovarian = system: OVCAR-5 ovarian
# SF-295 CNS = system: SF-295 CNS
# NCI-H522 lung = system: NCI-H522 lung
# HCT-116 colon = system: HCT-116 colon
# DMS 273 small cell lung = system: DMS 273 small cell lung
# UACC-257 melanoma = system: UACC-257 melanoma
# SK-OV-3 ovarian = system: SK-OV-3 ovarian
# MALME-3M melanoma = system: MALME-3M melanoma
# HT29 colon = system: HT29 colon
# U251 CNS = system: U251 CNS
# ACHN renal = system: ACHN renal
# IGROV1 ovarian = system: IGROV1 ovarian
# EKVX NSCLC = system: EKVX NSCLC
# KM12 colon = system: KM12 colon
# HOP-62 NSCLC = system: HOP-62 NSCLC
# RXF 393 renal = system: RXF 393 renal
# SK-MEL-28 melanoma = system: SK-MEL-28 melanoma
# HL-60(TB) leukemia = system: HL-60(TB) leukemia
# CCRF-CEM leukemia = system: CCRF-CEM leukemia
# K-562 leukemia = system: K-562 leukemia
# OVCAR-8 ovarian = system: OVCAR-8 ovarian
# HOP-92 NSCLC = system: HOP-92 NSCLC
# SR leukemia = system: SR leukemia
# TK-10 renal = system: TK-10 renal
# MOLT-4 leukemia = system: MOLT-4 leukemia
# SK-MEL-5 melanoma = system: SK-MEL-5 melanoma
# LOX IMVI melanoma = system: LOX IMVI melanoma
smiles,measurement,setting,value
Cc1ccc(S(=O)(=O)N/N=C(/CC(=O)c2c(C)n([O-])c3ccccc3[n+]2=O)C(=O)Nc2ccc(C)c(C)c2)cc1,TGI,SNB-78 CNS,> 100 µM
same,TGI,UO-31 renal,> 100 µM
same,TGI,SF-539 CNS,> 100 µM
same,TGI,OVCAR-4 ovarian,> 100 µM
same,TGI,786-0 renal,> 100 µM
same,TGI,NCI-H460 lung,> 100 µM
same,TGI,LXFL 529 NSCLC,> 100 µM
same,TGI,SNB-75 CNS,> 100 µM
same,TGI,DMS 114 small cell lung,67.2 µM
same,TGI,SW-620 colon,> 100 µM
same,TGI,HOP-18 NSCLC,> 100 µM
same,TGI,SNB-19 CNS,> 100 µM
same,TGI,DLD-1 colon,> 100 µM
same,TGI,OVCAR-3 ovarian,63.1 µM
same,TGI,A549 NSCLC,> 100 µM
same,TGI,COLO 205 colon,> 100 µM
same,TGI,CAKI-1 renal,> 100 µM
same,TGI,SK-MEL-2 melanoma,> 100 µM
same,TGI,KM20L2 colon,> 100 µM
same,TGI,SF-268 CNS,> 100 µM
same,TGI,UACC-62 melanoma,> 100 µM
same,TGI,NCI-H226 lung,> 100 µM
same,TGI,HCC-2998 colon,> 100 µM
same,TGI,RPMI-8226 leukemia,> 100 µM
same,TGI,RXF-631 renal,> 100 µM
same,TGI,SN12C renal,> 100 µM
same,TGI,A498 renal,> 100 µM
same,TGI,M14 melanoma,> 100 µM
same,TGI,HCT-15 colon,> 100 µM
same,TGI,NCI-H23 lung,> 100 µM
same,TGI,M19-MEL melanoma,42.6 µM
same,TGI,OVCAR-5 ovarian,> 100 µM
same,TGI,SF-295 CNS,> 100 µM
same,TGI,NCI-H522 lung,> 100 µM
same,TGI,HCT-116 colon,> 100 µM
same,TGI,DMS 273 small cell lung,> 100 µM
same,TGI,UACC-257 melanoma,> 100 µM
same,TGI,SK-OV-3 ovarian,> 100 µM
same,TGI,MALME-3M melanoma,> 100 µM
same,TGI,HT29 colon,> 100 µM
same,TGI,U251 CNS,> 100 µM
same,TGI,ACHN renal,> 100 µM
same,TGI,IGROV1 ovarian,> 100 µM
same,TGI,EKVX NSCLC,> 100 µM
same,TGI,KM12 colon,> 100 µM
same,TGI,HOP-62 NSCLC,> 100 µM
same,TGI,RXF 393 renal,> 100 µM
same,TGI,SK-MEL-28 melanoma,> 100 µM
CC/C(CC(=O)CCC(=O)Nc1c(C)cccc1C)=N\NC(=O)NN,TGI,SNB-78 CNS,> 100 µM
same,TGI,HL-60(TB) leukemia,> 100 µM
same,TGI,UO-31 renal,> 100 µM
same,TGI,SF-539 CNS,> 100 µM
same,TGI,OVCAR-4 ovarian,> 100 µM
same,TGI,CCRF-CEM leukemia,> 100 µM
same,TGI,786-0 renal,> 100 µM
same,TGI,K-562 leukemia,> 100 µM
same,TGI,NCI-H460 lung,> 100 µM
same,TGI,LXFL 529 NSCLC,> 100 µM
same,TGI,SW-620 colon,> 100 µM
same,TGI,HOP-18 NSCLC,> 100 µM
same,TGI,OVCAR-8 ovarian,> 100 µM
same,TGI,HOP-92 NSCLC,> 100 µM
same,TGI,SNB-19 CNS,> 100 µM
same,TGI,DLD-1 colon,> 100 µM
same,TGI,OVCAR-3 ovarian,> 100 µM
same,TGI,A549 NSCLC,> 100 µM
same,TGI,COLO 205 colon,> 100 µM
same,TGI,SK-MEL-2 melanoma,> 100 µM
same,TGI,KM20L2 colon,> 100 µM
same,TGI,SF-268 CNS,> 100 µM
same,TGI,UACC-62 melanoma,> 100 µM
same,TGI,HCC-2998 colon,> 100 µM
same,TGI,SR leukemia,> 100 µM
same,TGI,RXF-631 renal,> 100 µM
same,TGI,SN12C renal,> 100 µM
same,TGI,TK-10 renal,> 100 µM
same,TGI,A498 renal,> 100 µM
same,TGI,M14 melanoma,> 100 µM
same,TGI,HCT-15 colon,> 100 µM
same,TGI,NCI-H23 lung,> 100 µM
same,TGI,M19-MEL melanoma,> 100 µM
same,TGI,OVCAR-5 ovarian,> 100 µM
same,TGI,SF-295 CNS,> 100 µM
same,TGI,HCT-116 colon,> 100 µM
same,TGI,UACC-257 melanoma,> 100 µM
same,TGI,MALME-3M melanoma,> 100 µM
same,TGI,HT29 colon,> 100 µM
same,TGI,U251 CNS,> 100 µM
same,TGI,ACHN renal,> 100 µM
same,TGI,MOLT-4 leukemia,> 100 µM
same,TGI,IGROV1 ovarian,> 100 µM
same,TGI,EKVX NSCLC,> 100 µM
same,TGI,SK-MEL-5 melanoma,> 100 µM
same,TGI,KM12 colon,> 100 µM
same,TGI,RXF 393 renal,> 100 µM
O=c1c2ccccc2nc(/C=C(\O)c2ccccc2)n1-c1ccccc1Cl,TGI,SNB-78 CNS,> 100 µM
same,TGI,HL-60(TB) leukemia,> 100 µM
same,TGI,UO-31 renal,> 100 µM
same,TGI,SF-539 CNS,> 100 µM
same,TGI,OVCAR-4 ovarian,> 100 µM
same,TGI,CCRF-CEM leukemia,> 100 µM
same,TGI,786-0 renal,> 100 µM
same,TGI,K-562 leukemia,> 100 µM
same,TGI,NCI-H460 lung,> 100 µM
same,TGI,LXFL 529 NSCLC,> 100 µM
same,TGI,SNB-75 CNS,> 100 µM
same,TGI,DMS 114 small cell lung,> 100 µM
same,TGI,SW-620 colon,> 100 µM
same,TGI,LOX IMVI melanoma,> 100 µM
same,TGI,HOP-18 NSCLC,> 100 µM
same,TGI,OVCAR-8 ovarian,> 100 µM
same,TGI,HOP-92 NSCLC,> 100 µM
same,TGI,SNB-19 CNS,> 100 µM
same,TGI,DLD-1 colon,> 100 µM
same,TGI,OVCAR-3 ovarian,> 100 µM
same,TGI,A549 NSCLC,> 100 µM
same,TGI,COLO 205 colon,> 100 µM
same,TGI,CAKI-1 renal,> 100 µM
same,TGI,SK-MEL-2 melanoma,> 100 µM
same,TGI,KM20L2 colon,> 100 µM
same,TGI,SF-268 CNS,> 100 µM
same,TGI,UACC-62 melanoma,> 100 µM
same,TGI,NCI-H226 lung,> 100 µM
same,TGI,HCC-2998 colon,> 100 µM
same,TGI,SR leukemia,> 100 µM
same,TGI,RXF-631 renal,> 100 µM
same,TGI,SN12C renal,> 100 µM
same,TGI,TK-10 renal,> 100 µM
same,TGI,A498 renal,> 100 µM
same,TGI,M14 melanoma,> 100 µM
same,TGI,HCT-15 colon,> 100 µM
same,TGI,NCI-H23 lung,> 100 µM
same,TGI,M19-MEL melanoma,> 100 µM
same,TGI,OVCAR-5 ovarian,> 100 µM
same,TGI,SF-295 CNS,> 100 µM
same,TGI,NCI-H522 lung,> 100 µM
same,TGI,HCT-116 colon,> 100 µM
same,TGI,DMS 273 small cell lung,> 100 µM
same,TGI,UACC-257 melanoma,> 100 µM
same,TGI,SK-OV-3 ovarian,> 100 µM
same,TGI,MALME-3M melanoma,> 100 µM
same,TGI,HT29 colon,> 100 µM
same,TGI,U251 CNS,> 100 µM
same,TGI,ACHN renal,> 100 µM
same,TGI,MOLT-4 leukemia,> 100 µM
same,TGI,IGROV1 ovarian,> 100 µM
same,TGI,EKVX NSCLC,> 100 µM
same,TGI,SK-MEL-5 melanoma,> 100 µM
same,TGI,KM12 colon,> 100 µM
same,TGI,HOP-62 NSCLC,> 100 µM
same,TGI,RXF 393 renal,> 100 µM
same,TGI,SK-MEL-28 melanoma,> 100 µM
